Tests used:
GLUT4 = target: T1, GLUT4 (Homo sapiens, UniProt P14672); assay: 2-DOG transport in HEK293 cells over-expressing GLUT4; type: cell-based; settings: for IC50: pre-treated 5 minutes, 2-DOG uptake 4 min, cells lacking GLUT1, read-out: IC50 (inhibition of 2-DOG transport in HEK cells over-expressing GLUT isoforms) GLUT4
T1 construct: expressed in transfected cells; host or cells: HEK293 stably expressing GLUT1 shRNA
T1 sequence (P14672 1-509): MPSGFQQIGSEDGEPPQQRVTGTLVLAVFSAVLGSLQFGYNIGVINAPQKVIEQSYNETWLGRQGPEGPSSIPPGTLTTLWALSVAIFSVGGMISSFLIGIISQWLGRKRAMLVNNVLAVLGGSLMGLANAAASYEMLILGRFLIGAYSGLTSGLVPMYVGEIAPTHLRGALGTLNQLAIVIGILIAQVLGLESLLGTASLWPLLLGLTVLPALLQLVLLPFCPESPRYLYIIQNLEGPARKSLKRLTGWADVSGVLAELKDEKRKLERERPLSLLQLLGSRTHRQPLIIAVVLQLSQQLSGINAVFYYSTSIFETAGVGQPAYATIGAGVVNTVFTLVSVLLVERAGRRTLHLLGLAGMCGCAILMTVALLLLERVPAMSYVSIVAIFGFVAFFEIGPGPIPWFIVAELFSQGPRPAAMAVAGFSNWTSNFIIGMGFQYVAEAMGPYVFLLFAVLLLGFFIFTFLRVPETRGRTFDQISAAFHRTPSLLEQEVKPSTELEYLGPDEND
Experimental: (§1) Tissue culture plates were pretreated with 25 μg/ml polyethyleneimine (Fluka, catalogue number P3143) in 150 mM NaCl for 20min to let cells adhere. JNN3 cells were subsequently plated and grown to 40-60% confluency in complete RPMI 1640 medium. HEK293 GLUT overexpressing cells were plated at 400,000 cells/ml overnight. Cells were then washed with glucose-free HEPES buffer twice and starved for 30 min. The uptake of 2-[^3H] deoxy-D-glucose (2-DOG) (50 μM) was measured in glucose-free HEPES buffer for 4-6 min at 37° C. Compound 20 (20 μM) was added 5-6 min prior to the addition of glucose depending on the specific assay. For the HEK293 GLUT overexpressing cells, non-specific uptake was measured in non-transfected HEK293 cells containing the shRNA GLUT1 knockdown and was subtracted from the experimental values. Data are plotted as percent uptake relative to unexposed HEK293 cultures. Data were normalized to fit by nonlinear regression analysis using GraphPad Prism software.
(§2) Compound 20 was further screened for GLUT4 selectivity by evaluating inhibition of glucose transport in HEK 293 cells exogenously over-expressing human GLUTs-1, -2, -3, -4, or -8 that also stably express GLUT1 shRNA (except the GLUT1 overexpressing cell line) to knock down endogenous GLUT1.
(§3) Glucose transport in HEK293 cells over-expressing GLUT1 or over-expressing GLUT4 or GLUT8 in cells lacking GLUT1 were used to evaluate inhibition of glucose transport. Cells were pre-treated with compound for 5 minutes followed by evaluation of […] uptake for 4 min at […]. Non-specific uptake was measured in nontransfected HEK293 cells containing the shRNA GLUT1 knockdown and was subtracted from the experimental values.

GLUT8 = target: T2, GLUT8 (Homo sapiens, UniProt Q9NY64); assay: 2-DOG transport in HEK293 cells over-expressing GLUT8; type: cell-based; settings: pre-treated 5 minutes, 2-DOG uptake 4 min; cells lacking GLUT1; read-out: IC50 (inhibition of 2-DOG transport in HEK cells over-expressing GLUT isoforms) GLUT8
T2 construct: expressed in transfected cells; host or cells: HEK293 stably expressing GLUT1 shRNA
T2 sequence (Q9NY64 1-477): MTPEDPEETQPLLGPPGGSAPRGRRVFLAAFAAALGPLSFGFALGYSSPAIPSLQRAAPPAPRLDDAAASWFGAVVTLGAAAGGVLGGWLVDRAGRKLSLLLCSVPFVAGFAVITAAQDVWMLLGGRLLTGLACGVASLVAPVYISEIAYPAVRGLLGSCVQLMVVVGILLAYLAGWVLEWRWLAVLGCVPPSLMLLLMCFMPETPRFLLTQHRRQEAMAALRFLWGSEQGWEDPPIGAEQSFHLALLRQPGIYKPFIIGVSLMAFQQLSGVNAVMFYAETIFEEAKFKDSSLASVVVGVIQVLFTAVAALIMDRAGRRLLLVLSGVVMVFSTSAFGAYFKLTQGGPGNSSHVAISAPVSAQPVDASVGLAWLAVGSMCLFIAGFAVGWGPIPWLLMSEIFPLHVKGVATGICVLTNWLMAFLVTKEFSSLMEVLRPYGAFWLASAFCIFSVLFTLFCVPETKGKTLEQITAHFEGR
Experimental: as §1, §2, §3

H1299 cell = H1299 cell invasion; type: cell-based, human; settings: FIG. 9
[1] = test system: CD38+/CD45- gated myeloma cells from myeloma patient bone marrow aspirates; assay: Cell death of myeloma cells from MM patient bone marrow aspirates; type: cell-based, human
Experimental: CD38-phyocerythrin and CD45-allophycocyanin-Cy7 positive myeloma cells were evaluated for cell death.
(§4) KD of GLUT4 and glucose deprivation lead to variable suppression of the pro-survival anti-apoptotic protein MCL-1. […] Cells resistant to glucose deprivation-induced cell death increase binding of pro-apoptotic BIM to BCL-2, facilitating sensitization to the BH3 mimetic venetoclax (ABT-199). 22 Treatment of glucose-deprived resistant cells with ABT-199 releases the additional BIM bound to BCL-2, inducing apoptosis. […] Compound 20 was evaluated for sensitizing MM patient samples to ABT-199. CD38+/CD45− gated myeloma cells from myeloma patient bone marrow aspirates were evaluated for viability after 48 hrs of treatment. […] The ability of compound 20 to sensitize MM cells and induce cell death to the commonly used steroid dexamethasone (Dex) was tested. […] To rule out the cytotoxic effect of co-treatment of compound 20 with either ABT-199 or dexamethasone on other non-myeloma cell populations, cell viability of CD38−/CD45− and CD38−/CD45+ cells were analyzed within the MM patient sample bone marrow aspirate (FIG. 6G). […] Lastly, compound 20 was also found to sensitize MM.15 cells to a dose range of the alkylating agent melphalan (Mel) that was assessed in a 72 hr treatment period (FIG. 6H).

L363 cells = assay: Cell death with ABT-199 co-treatment in L363 cells (AnnexinV/DAPI); type: cell-based; settings: 10 μM with 0.025 μM-3 μM ABT-199, 72 hours
Experimental: Compound 20 decreasing MCL-1 expression and sensitizing MM cell lines to Venetoclax (ABT-199),
(§5) Cell death was evaluated by AnnexinV/DAPI flow cytometric staining.
IC50 studies were performed using the CellTiter-Glo assay (Promega, Madison, Wis.). 20,000 cells in 100 ul complete RPMI 1640 medium were plated per well in 96-well plates, with a concentration range of individual compounds. After 72 h incubation, 100 uL Glo reagent were added to each well and luminescence was measured using a Biotek Synergy 4 multimode plate reader. Cell number was assessed by trypan blue standing and an automatic cell counter (Biorad). For cell viability assays 0.125×10^6 cells/mL were treated with the indicated concentration of drug, washed with 1×PBS and evaluated for viability by AnnexinV/DAPI staining and flow cytometry. […]
(§6) KD of GLUT4 and glucose deprivation lead to variable suppression of the pro-survival anti-apoptotic protein MCL-1. […] Compound 20 was evaluated for sensitizing MM patient samples to ABT-199. CD38+/CD45− gated myeloma cells from myeloma patient bone marrow aspirates were evaluated for viability after 48 hrs of treatment. […] To rule out the cytotoxic effect of co-treatment of compound 20 with either ABT-199 or dexamethasone on other non-myeloma cell populations, cell viability of CD38−/CD45− and CD38−/CD45+ cells were analyzed within the MM patient sample bone marrow aspirate (FIG. 6G). […]

KMS11-GLUT1 cells = assay: Proliferation of KMS11-GLUT1 myeloma cells (Cell Titre Glo); type: cell-based; settings: inhibition of proliferation, 72 hours
Experimental: (§7) IC50 studies were performed using the CellTiter-Glo assay (Promega, Madison, Wis.). 20,000 cells in 100 ul complete RPMI 1640 medium were plated per well in 96-well plates, with a concentration range of individual compounds. After 72 h incubation, 100 uL Glo reagent were added to each well and luminescence was measured using a Biotek Synergy 4 multimode plate reader. Cell number was assessed by trypan blue standing and an automatic cell counter (Biorad). For cell viability assays 0.125×10^6 cells/mL were treated with the indicated concentration of drug, washed with 1×PBS and evaluated for viability by AnnexinV/DAPI staining and flow cytometry. Data analysis was per-formed with the FCS express version 3 (De Novo software, Los Angeles).
(§8) Compound were selected as a lead based on its low IC50, selectivity for inhibition of glucose transport through GLUT4, and inhibition of the KMS11-GFP cell line proliferation in contrast to the GLUT1 expressing isogenic line. Compounds were assessed in a high-throughput proliferation-based assay using an isogenic MM (KMS11) cell line pair overexpressing GLUT1 or GFP (as a control) (model of screen is depicted in FIG. 2A). […] Isogenic KMS11-GFP/GLUT1 overexpressing myeloma cell lines were treated with a dose range of the indicated test compound for 72 hours followed by evaluation of viable cell number by Cell Titre Glo assay

[2] = test system: JJN3 cells expressing GLUT4 shRNA; assay: Viability/proliferation of JJN3 cells with GLUT4 shRNA (trypan blue, cell counter); type: cell-based; settings: 15 μM, 72 hours
Experimental: as §7
(§9) Impact of compound 20 was evaluated on glucose uptake in MM cells.

KMS11-GFP cells = assay: Proliferation of KMS11-GFP myeloma cells (Cell Titre Glo); type: cell-based
Experimental: as §7, §8

[3] = test system: follower lung cancer cell; assay: Follower lung cancer cell invasion; type: cell-based; settings: FIG. 7
JJN3 cells [4] = assay: 2-[3H]deoxyglucose uptake in JJN3 cells; type: cell-based; settings: 20 μM, 6 min pre-treatment, 6 min uptake at 37 degrees C; compared with GLUT4 shRNA
Experimental: as §1, §9

JJN3 cells [5] = assay: Cell death with ABT-199 co-treatment in JJN3 cells (AnnexinV/DAPI); type: cell-based; settings: co-treatment with ABT-199
Experimental: as §5, §7, §6

KMS11 cells = assay: Cell viability by AnnexinV/DAPI staining and flow cytometry in KMS11 cells; type: cell-based; settings: compared with compounds 8, 9, 17
Experimental: as §7
They were selected and their effect on cell viability evaluated by AnnexinV/DAPI staining and flow cytometric analysis.

[6] = test system: CD38-/CD45- and CD38-/CD45+ cells; assay: Viability of normal non-myeloma cell populations in MM patient bone marrow aspirate; type: cell-based; settings: in combination with either ABT-199 or Dex
Source text: Data from patient #6 is representative of patient samples evaluated.
as §4, with “tested. Compound 20 treated MM.1S cells were exposed to a dose range of Dex (0.00195 μM to 1 μM) for 72 hr (FIG. 6E).” for “tested.”

MCL-1 = assay: Immunoblot of MCL-1 expression in MM cells; type: cell-based; settings: L363 cells vs JJN3, 15 μM for 18 hours
MM.1S cells = assay: Cell death with dexamethasone or melphalan co-treatment in MM.1S cells (AnnexinV/DAPI); type: cell-based; settings: 72 hr
Experimental: as §5, §7, §6

FAK = FAK activation, scratch assay; type: cell-based; settings: FIG. 8

IC50 (GLUT8) [µM]	Structure (SMILES)	IC50 (GLUT4) [µM]	H1299 cell invasion (H1299 cell)	sensitization of MM patient samples to combination with dexamethasone ([1]; 0.5 μM dexamethasone and 10 μM compound 20, 48 hr)	relapse/refractory patient samples with greater apoptosis on co-treatment with ABT-199 than either drug alone ([1]; 10 μM with 0.5 μM ABT-199, 48 hrs)	sensitivity to ABT-199, L363 cell line (L363 cells)	EC50 (KMS11-GLUT1 cells) [µM]	viable cell counts in GLUT4 knockdown cells [2]	EC50 (KMS11-GFP cells; inhibition of proliferation, 72 hours, Cell Titre Glo) [µM]	impact on proliferation in KMS11-GFP cells compared with KMS11-GLUT1 cells (KMS11-GFP cells; isogenic cell line pair)	follower lung cancer cell invasion [3]	selectivity of glucose transport inhibition among human GLUTs-1, -2, -3, -4, -8 (GLUT4; HEK 293 cells over-expressing human GLUTs, 4 minute uptake of 2-DOG)	2-DOG uptake in JJN3 cells (JJN3 cells [4])	sensitivity to ABT-199, JJN3 cell line (JJN3 cells [5])	cell death in KMS11 cells (KMS11 cells)	viability of normal non-myeloma cell populations [6]	MCL-1 expression (MCL-1)	sensitization to melphalan (Mel) (MM.1S cells; 10 μM with 0.01 μM-4 μM melphalan)	sensitization to dexamethasone (Dex), cell death in MM.1S (MM.1S cells; 10 μM with Dex 0.00195 μM to 1 μM)	FAK activation (FAK)
6	COc1ccc(C(=O)N(Cc2ccncc2)Cc2cccc(OCCc3ccc(F)cc3)c2)cc1 [Compound 26]	3.5	inhibits H1299 cell invasion																	
	COc1ccc(CC(=O)N(Cc2ccncc2)Cc2cccc(OCCc3ccc(F)cc3)c2)cc1 [Compound 20, N-(3-(4-fluorophenethoxy)benzyl)-2-(4-methoxyphenyl)-N-(pyridin-4-ylmethyl)acetamide]	18.2		sensitized	4 of 7	increased sensitivity to ABT-199	21.8	no further reduction	13.4	greater impact on proliferation in KMS11-GFP cells	inhibits follower lung cancer cell invasion	selective for GLUT4 over GLUTs 1, 2, 3 and 8	effectively reduced	increased sensitivity to ABT-199	greater cell death	did not impact the viability	significantly reduced	sensitize	significant sensitization and cell death	inhibits FAK activation

Source: patent publication US20190321345A1, “GLUT4 Selective Inhibitors for Cancer Therapy” (Emory University, priority 2016, published 2019)
